Test results as given in US20210356467A1, “SYSTEMS AND METHOD FOR SCREENING SMALL MOLECULES OF INTEREST” (TECHNOLOGY INNOVATION MOMENTUM FUND (ISRAEL) LIMITED …, priority 2018, published 2021).

Tests used:
[1] = biological target: T1, GSPT1 ubiquitylation by CRBN (Homo sapiens, UniProt P15170+Q96SW2); assay: split-CAT selective growth assay, GSPT1 as ubiquitylation target of CRBN; type: cell-based; parameters: expressed in transfected cells; host or cells: E. coli; conditions: for growth of E. coli that express GSPT1 (ubiquitylation dependent growth, OD600): split-CAT system, Cereblon-E2 (Ubc4) fusion, LB with chloramphenicol, 96 and 384 well plates
Method: (§1) Activity assays with split-CAT system: Vectors containing the split-CAT ubiquitylation system were co-transformed into E. coli and grew in the presence of the relevant antibiotics (e.g. kanamycin and streptomycin). Overnight culture was harvested and the media was replaced with fresh LB containing 8 μg/ml chloramphenicol. The culture was diluted to O.D.600=0.2 and dispended to a 96 or 384 well plate supplemented with potential small molecule drugs or DMSO only. The plate was placed in a shaker/incubator/reader and OD600 was continuously monitored during the growth.
(§2) This procedure was used to read the ubiquitylation dependent growth of IKZF1, IKZF3, CK1a and GSPT1.
(§3) In a first experiment, IKZF1 (Q13422) and GSPT1 (P15170) were analyzed as potential ubiquitylation targets. These targets were coexpressed with C-CAT-Ub and E1 and the Cereblon-E2 (Ubc4) fusion. […] These assays were performed in 96 and 384 well plates.
In a third experiment, GSPT1 was analyzed as a potential ubiquitylation target. It was expressed in-frame upstream to the N-CAT fragment. The target was co-expressed with C-CAT-Ub, wheat E1 and Cereblon-E2 (Ubc4) fusion. […] These assays were performed in 96 and 384 well plates.
Target sequence in this assay (P15170 whole entry, the tested form may be a part): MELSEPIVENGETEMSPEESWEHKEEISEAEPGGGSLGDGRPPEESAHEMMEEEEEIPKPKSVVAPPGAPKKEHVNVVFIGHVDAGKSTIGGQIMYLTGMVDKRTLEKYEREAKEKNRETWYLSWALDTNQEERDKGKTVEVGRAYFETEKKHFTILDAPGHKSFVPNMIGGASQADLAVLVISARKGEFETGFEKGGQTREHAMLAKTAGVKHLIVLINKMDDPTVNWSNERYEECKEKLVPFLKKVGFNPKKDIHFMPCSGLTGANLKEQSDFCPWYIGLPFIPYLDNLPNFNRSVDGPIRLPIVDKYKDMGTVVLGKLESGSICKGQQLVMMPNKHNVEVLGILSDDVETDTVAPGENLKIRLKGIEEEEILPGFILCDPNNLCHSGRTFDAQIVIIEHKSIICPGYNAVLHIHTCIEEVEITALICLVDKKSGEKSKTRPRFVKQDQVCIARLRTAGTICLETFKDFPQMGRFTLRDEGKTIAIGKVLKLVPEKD
Target sequence in this assay (Q96SW2 whole entry, the tested form may be a part): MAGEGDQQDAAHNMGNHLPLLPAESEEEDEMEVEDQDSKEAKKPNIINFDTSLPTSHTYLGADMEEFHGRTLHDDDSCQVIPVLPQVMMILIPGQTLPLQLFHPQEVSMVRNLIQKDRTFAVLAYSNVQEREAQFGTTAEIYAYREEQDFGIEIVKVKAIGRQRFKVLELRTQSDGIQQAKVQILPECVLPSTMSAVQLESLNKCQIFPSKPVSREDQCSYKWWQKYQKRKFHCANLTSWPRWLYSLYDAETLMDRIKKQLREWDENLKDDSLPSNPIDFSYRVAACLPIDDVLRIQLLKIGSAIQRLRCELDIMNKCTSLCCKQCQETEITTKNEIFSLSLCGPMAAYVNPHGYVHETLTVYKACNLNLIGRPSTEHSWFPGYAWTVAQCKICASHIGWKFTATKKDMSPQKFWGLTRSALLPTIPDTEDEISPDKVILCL
Target sequence in this assay (P15731 whole entry partner, the tested form may be a part): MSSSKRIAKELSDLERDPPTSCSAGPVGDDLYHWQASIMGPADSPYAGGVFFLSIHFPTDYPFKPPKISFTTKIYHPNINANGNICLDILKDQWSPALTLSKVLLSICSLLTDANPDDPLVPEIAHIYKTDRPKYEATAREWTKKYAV

[2] = biological target: T1, GSPT1 ubiquitylation by CRBN; conditions: Matyskiela et al. Nature 535, 252-257 (2016); cited from earlier work
Target sequence in this assay (P15170 whole entry, the tested form may be a part): as the sequence (P15170 whole entry, the tested form may be a part) above
Target sequence in this assay (Q96SW2 whole entry, the tested form may be a part): as the sequence (Q96SW2 whole entry, the tested form may be a part) above
Target sequence in this assay (Q16531 whole entry partner, the tested form may be a part): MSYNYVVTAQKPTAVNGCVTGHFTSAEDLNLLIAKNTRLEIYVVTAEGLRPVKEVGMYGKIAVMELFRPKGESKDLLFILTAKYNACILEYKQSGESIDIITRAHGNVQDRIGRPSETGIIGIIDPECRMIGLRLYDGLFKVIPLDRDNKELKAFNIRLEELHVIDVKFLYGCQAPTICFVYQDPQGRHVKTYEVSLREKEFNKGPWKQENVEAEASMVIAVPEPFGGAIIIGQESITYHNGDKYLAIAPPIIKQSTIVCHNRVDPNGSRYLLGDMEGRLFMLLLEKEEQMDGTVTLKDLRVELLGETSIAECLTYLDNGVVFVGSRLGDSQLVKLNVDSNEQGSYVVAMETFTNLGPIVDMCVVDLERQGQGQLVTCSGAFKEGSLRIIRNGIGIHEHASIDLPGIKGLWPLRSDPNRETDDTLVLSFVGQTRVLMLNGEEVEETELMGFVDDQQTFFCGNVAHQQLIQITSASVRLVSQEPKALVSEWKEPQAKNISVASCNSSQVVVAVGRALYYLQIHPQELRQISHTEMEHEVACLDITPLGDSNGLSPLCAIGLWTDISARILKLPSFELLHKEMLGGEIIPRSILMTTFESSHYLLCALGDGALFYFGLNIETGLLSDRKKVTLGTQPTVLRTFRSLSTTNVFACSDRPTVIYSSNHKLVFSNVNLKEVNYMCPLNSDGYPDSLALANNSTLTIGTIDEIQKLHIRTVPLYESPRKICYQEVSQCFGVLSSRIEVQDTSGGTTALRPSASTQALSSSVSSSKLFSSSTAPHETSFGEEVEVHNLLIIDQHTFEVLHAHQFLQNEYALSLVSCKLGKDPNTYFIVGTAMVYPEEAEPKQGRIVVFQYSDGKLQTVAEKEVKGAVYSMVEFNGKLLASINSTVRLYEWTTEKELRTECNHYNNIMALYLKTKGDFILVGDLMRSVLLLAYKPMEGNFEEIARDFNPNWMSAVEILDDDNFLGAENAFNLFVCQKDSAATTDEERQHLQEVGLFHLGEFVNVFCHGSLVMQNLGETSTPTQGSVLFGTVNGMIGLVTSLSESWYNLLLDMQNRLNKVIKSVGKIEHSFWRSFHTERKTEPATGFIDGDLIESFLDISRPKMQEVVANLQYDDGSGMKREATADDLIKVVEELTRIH

[3] = biological target: T2, CK1α ubiquitylation by CRBN (Homo sapiens, UniProt P48729+Q96SW2); assay: split-CAT selective growth assay, CK1a as ubiquitylation target of CRBN; type: cell-based; conditions: split-CAT system, Cereblon-E2 (Ubc4) fusion, chloramphenicol, 96 and 384 well plates
T2 construct: expressed in transfected cells; host or cells: E. coli
T2 sequence (P48729 whole entry, the tested form may be a part): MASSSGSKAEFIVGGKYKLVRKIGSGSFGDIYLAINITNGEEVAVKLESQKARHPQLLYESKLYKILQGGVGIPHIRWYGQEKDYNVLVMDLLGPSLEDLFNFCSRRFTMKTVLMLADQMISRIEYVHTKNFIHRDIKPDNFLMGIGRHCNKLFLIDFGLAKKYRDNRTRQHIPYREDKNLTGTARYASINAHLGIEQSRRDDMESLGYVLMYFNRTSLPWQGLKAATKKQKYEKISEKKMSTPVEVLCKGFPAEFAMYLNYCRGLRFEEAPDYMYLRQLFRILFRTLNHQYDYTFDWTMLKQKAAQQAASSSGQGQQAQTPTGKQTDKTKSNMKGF
T2 sequence (Q96SW2 whole entry, the tested form may be a part): as the sequence (Q96SW2 whole entry, the tested form may be a part) above
T2 sequence (P15731 whole entry partner, the tested form may be a part): as the sequence (P15731 whole entry partner, the tested form may be a part) above
Method: as §1, §2
It was expressed in-frame upstream to the N-CAT fragment. […] These assays were performed in 96 and 384 well plates.

[4] = biological target: T3, IKZF1 ubiquitylation by CRBN (Homo sapiens, UniProt Q13422+Q96SW2); assay: split-CAT selective growth assay, IKZF1 as ubiquitylation target of CRBN; type: cell-based
T3 construct: expressed in transfected cells; host or cells: E. coli
T3 sequence (Q13422 whole entry): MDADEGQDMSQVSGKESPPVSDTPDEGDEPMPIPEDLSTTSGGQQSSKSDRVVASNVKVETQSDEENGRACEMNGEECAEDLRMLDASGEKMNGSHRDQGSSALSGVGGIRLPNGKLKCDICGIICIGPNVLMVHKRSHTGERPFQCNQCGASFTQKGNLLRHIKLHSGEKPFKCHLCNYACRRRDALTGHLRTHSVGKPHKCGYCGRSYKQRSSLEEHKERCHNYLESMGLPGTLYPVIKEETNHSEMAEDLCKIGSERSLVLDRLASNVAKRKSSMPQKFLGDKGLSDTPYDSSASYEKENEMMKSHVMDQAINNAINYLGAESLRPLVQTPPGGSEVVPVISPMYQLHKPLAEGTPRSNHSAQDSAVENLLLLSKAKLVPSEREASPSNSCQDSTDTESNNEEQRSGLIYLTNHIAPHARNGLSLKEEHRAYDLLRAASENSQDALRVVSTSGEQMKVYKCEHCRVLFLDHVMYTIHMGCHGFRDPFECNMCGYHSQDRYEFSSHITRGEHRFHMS
T3 sequence (Q96SW2 whole entry): as the sequence (Q96SW2 whole entry, the tested form may be a part) above
T3 sequence (P15731 whole entry partner): as the sequence (P15731 whole entry partner, the tested form may be a part) above
Method: as §1, §2, §3

Row | SMILES | shape of dose response curve (growth), GSPT1 target ([1]; increased concentration of drug, selective conditions with chloramphenicol) | growth of E. coli that express GSPT1 (ubiquitylation dependent growth, OD600) [1] | CRBN dependent ubiquitylation of GSPT1 in the presence of the drug [2] | growth of E. coli that express CK1a (ubiquitylation dependent growth, OD600) [3] | shape of dose response curve (growth), IKZF1 target ([4]; increased concentration of drug, split-CAT selection system) | growth of E. coli that express IKZF1 (ubiquitylation dependent growth, OD600) ([4]; split-CAT system, Cereblon-E2 (Ubc4) fusion, LB with chloramphenicol, 96 and 384 well plates) | growth of E. coli that express GSPT1 (ubiquitylation dependent growth, OD600) ([1]; listed as TLD)
1 | Cc1ccc(NC(=O)NCc2ccc3c(c2)CN(C2CCC(=O)NC2=O)C3=O)cc1Cl (stereo not shown) [CC-885] | classical bell-shaped activity (growth) curve | significantly promoted the growth | undergo CRBN dependent ubiquitylation |  |  |  | 
2 | O=C1CCC(N2C(=O)c3ccccc3C2=O)C(=O)N1 (stereo not shown) [Thalidomide] |  |  |  | significantly promoted the growth | optimum characteristic response | significantly promoted the growth | not promoted
